Measured values as given in patent publication US5521184A, “Pyrimidine derivatives and processes for the preparation thereof” (Ciba-Geigy Corporation, priority 1992, dated 1996).
pIC50: −log10 of the molar value.

Columns and labels:
[1] = system: p34^cdc2 /cyclin B^cdc13 kinase; assay: p34cdc2/cyclin Bcdc13 kinase assay with histone H1 as substrate; type: biochemical, starfish
Description: Starfish oocytes are induced to enter M phase with 10 μM 1-methyladenine, frozen in liquid nitrogen and stored at -80° C. When required the oocytes are homogenized and centrifuged as described by D. Arion et al., Cell 55, 371-378 (1988) and V. Rialet und L. Meijer, Anticancer Res. 11, 1581-1590 (1991). For purification of p34^cdc2 /cyclin B^cdc13 kinase, the supernatant of oocytes is added to p9^CKShs -sepharose beads prepared from recombinant human p9^CKShsas described by L. Azzi et al., Eur. J. Biochem. 203, 353-360 (1992). After 30 minutes at 4° C. under constant rotation, the beads are extensively washed and active p34^cdc2 /cyclin B^cdc13 kinase is eluted with free p9^CKShs (3 mg/ml). The eluted kinase is assayed using histone H1 as a substrate as described by L. Meijer et al., EMBO J. 8, 2275-2282 (1989) und EMBO J. 10, 1545-1554 (1991). The reaction mixture contains 10 μl p34^cdc2 /cyclin B^cdc13 kinase, 5 μl histone H1, type III-S (5 mg/ml) and 10 μl buffer C. The reaction is started by addition of 5 μl [γ-^32 P]ATP (75 μM, 8800 cpm/pmole) and incubated for 10 minutes at 30° C. The assay is terminated by transferring 25 μl on pieces of Whatman P81 phosphocellulose paper. After 20 seconds the papers are washed 6 times with each 10 ml of 1% phosphoric acid for 5 minutes, dried and counted in a scintillation counter.

[2] = system: human T24 bladder carcinoma; assay: tumour-inhibiting activity in nude mice with transplanted human T24 bladder carcinoma; type: in vivo, female Balb/c nude mice; settings: perorally or intraperitoneally once daily for 15 days
Description: The tumour-inhibiting activity is determined using female Balb/c nude mice in which human T24 bladder carcinoma has been transplanted. On day 0, a c. 25 mg piece of solid tumour is transplanted subcutaneously under peroral "forene" narcosis on the left flank and the small incision wound is closed with a suture clip. On day 6 after the tumour transplantation, the mice are randomised in groups of 6 animals and treatment is commenced. The treatment is carded out for 15 days by administering a compound of formula I, e.g. N-[3-(1,1,2,2-Tetrafluoroethoxy)phenyl]-4-(4-pyridyl)-2-pyrimidine-amine, in dimethyl sulfoxide/Tween 80/sodium chloride solution in the different doses perorally or intraperitoneally once daily. The tumours are measured twice weekly with a sliding caliper and the tumour volume determined.

[3] = target: EGF-receptor-specific protein tyrosine kinase (EGF-R-PTK) (Homo sapiens, UniProt P00533); assay: inhibition of the EGF-receptor-specific protein tyrosine kinase (EGF-R-PTK); type: biochemical
Description: J. Biochem. 207, 265-275 (1992).

Chain of EGF-receptor-specific protein tyrosine kinase (EGF-R-PTK) (P00533 669-1210 limits assumed): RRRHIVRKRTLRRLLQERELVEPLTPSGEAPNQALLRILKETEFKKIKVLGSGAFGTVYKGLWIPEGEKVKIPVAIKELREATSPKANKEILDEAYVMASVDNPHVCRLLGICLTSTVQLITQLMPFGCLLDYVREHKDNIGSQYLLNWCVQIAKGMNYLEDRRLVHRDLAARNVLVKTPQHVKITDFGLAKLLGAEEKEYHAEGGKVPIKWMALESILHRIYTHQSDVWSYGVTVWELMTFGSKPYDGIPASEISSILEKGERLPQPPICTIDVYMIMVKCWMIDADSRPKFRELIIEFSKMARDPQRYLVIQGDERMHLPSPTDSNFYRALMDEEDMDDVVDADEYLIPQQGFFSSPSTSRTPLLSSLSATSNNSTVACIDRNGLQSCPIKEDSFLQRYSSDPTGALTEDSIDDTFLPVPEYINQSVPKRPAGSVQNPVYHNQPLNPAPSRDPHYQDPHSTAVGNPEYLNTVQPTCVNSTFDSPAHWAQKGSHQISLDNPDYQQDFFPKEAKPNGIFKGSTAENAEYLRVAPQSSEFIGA

Structure (SMILES) | inhibition of p34cdc2/cyclin Bcdc13 kinase [1] | pIC50 ([1]; histone H1 substrate) | average tumour volume compared with the untreated controls [2] | inhibition of the tyrosine kinase activity of the receptor for EGF [3]
FC(F)C(F)(F)Oc1cccc(Nc2nccc(-c3ccncc3)n2)c1 [Example 32, N-[3-(1,1,2,2-tetrafluoroethoxy)phenyl]-4-(4-pyridyl)-2-pyrimidine-amine] | inhibit | 7.10 | marked reduction in the average tumour volume | 
FC(F)C(F)(F)Oc1cccc(Nc2nccc(-c3c[nH]c4ccccc34)n2)c1 [Example 33, N-[3-(1,1,2,2-tetrafluoroethoxy)phenyl]-4-(3-indolyl)-2-pyrimidine-amine] |  |  |  | inhibit the tyrosine kinase activity
